Experimental data reported in ChEMBL document CHEMBL1156468, “Crystal structures of Saccharomyces cerevisiae N-myristoyltransferase with bound myristoyl-CoA and inhibitors reveal the functional roles of the N-terminal region” (J Biol Chem, 2007).
Changes are numbered by the printed parent chain. Numbers in names are those of the source. Values belong to the molecule of their own block, whether it stands above or below them.

How the values were obtained:
Saccharomyces cerevisiae [1] = experiment: Ratio of kcat to Km for Saccharomyces cerevisiae NMT delta1-40 mutant
Saccharomyces cerevisiae [2] = experiment: Activity of Saccharomyces cerevisiae NMT D22K/D23K mutant assessed as production of coenzyme A after 1 hr
Saccharomyces cerevisiae [3] = experiment: Activity of Saccharomyces cerevisiae NMT NMT delta1-30 mutant assessed as production of coenzyme A after 1 hr
Saccharomyces cerevisiae [4] = experiment: Activity of Saccharomyces cerevisiae NMT NMT delta1-40 mutant assessed as production of coenzyme A after 1 hr
Saccharomyces cerevisiae [5] = experiment: Ratio of kcat to Km for Saccharomyces cerevisiae NMT D22K/D23K mutant
Saccharomyces cerevisiae [6] = experiment: Activity of Saccharomyces cerevisiae NMT NMT delta1-20 mutant assessed as production of coenzyme A after 1 hr
Saccharomyces cerevisiae [7] = experiment: Ratio of kcat to Km for Saccharomyces cerevisiae NMT delta1-30 mutant
Saccharomyces cerevisiae [8] = experiment: Ratio of kcat to Km for Saccharomyces cerevisiae NMT delta1-20 mutant
[9] = substrate: CC(C)C[C@H](NC(=O)CN)C(=O)N[C@@H](Cc1ccccc1)C(=O)N[C@@H](C)C(=O)N[C@@H](CO)C(=O)N[C@@H](CCCCN)C(=O)N[C@@H](CC(C)C)C(=O)N[C@@H](Cc1ccccc1)C(=O)O; experiment: Activity of Saccharomyces cerevisiae NMT D106A/D108A mutant assessed as production of coenzyme A after 1 hr
[10] = substrate: CC(C)C[C@H](NC(=O)CN)C(=O)N[C@@H](Cc1ccccc1)C(=O)N[C@@H](C)C(=O)N[C@@H](CO)C(=O)N[C@@H](CCCCN)C(=O)N[C@@H](CC(C)C)C(=O)N[C@@H](Cc1ccccc1)C(=O)O; experiment: Ratio of kcat to Km for Saccharomyces cerevisiae NMT D106A/D108A mutant
[11] = substrate: CC(C)C[C@H](NC(=O)CN)C(=O)N[C@@H](Cc1ccccc1)C(=O)N[C@@H](C)C(=O)N[C@@H](CO)C(=O)N[C@@H](CCCCN)C(=O)N[C@@H](CC(C)C)C(=O)N[C@@H](Cc1ccccc1)C(=O)O; experiment: Activity of Saccharomyces cerevisiae NMT D22A/D23A mutant assessed as production of coenzyme A after 1 hr
[12] = substrate: CC(C)C[C@H](NC(=O)CN)C(=O)N[C@@H](Cc1ccccc1)C(=O)N[C@@H](C)C(=O)N[C@@H](CO)C(=O)N[C@@H](CCCCN)C(=O)N[C@@H](CC(C)C)C(=O)N[C@@H](Cc1ccccc1)C(=O)O; experiment: Ratio of kcat to Km for Saccharomyces cerevisiae NMT D22A/D23A mutant

kcat/Km (Saccharomyces cerevisiae [1]): 2.48 ×10⁴ /M/s
Km (Saccharomyces cerevisiae [2]): 150 µM
kcat (Saccharomyces cerevisiae [2]): 4.73 s⁻¹
Km (Saccharomyces cerevisiae [3]): 159 µM
kcat (Saccharomyces cerevisiae [3]): 3.85 s⁻¹
Km (Saccharomyces cerevisiae [4]): 162 µM
kcat (Saccharomyces cerevisiae [4]): 4.03 s⁻¹
kcat/Km (Saccharomyces cerevisiae [5]): 3.16 ×10⁴ /M/s
Km (Saccharomyces cerevisiae [6]): 27.7 µM
kcat (Saccharomyces cerevisiae [6]): 3.58 s⁻¹
kcat/Km (Saccharomyces cerevisiae [7]): 2.43 ×10⁴ /M/s
kcat/Km (Saccharomyces cerevisiae [8]): 1.29 ×10⁵ /M/s
Molecule: H-GLFASKLF-OH

B1: Glycylpeptide N-tetradecanoyltransferase (Saccharomyces cerevisiae S288c), P14743 D106A,D108A (protein)
chain: MSEEDKAKKLENLLKLLQLNNDDTSKFTQEQKKAMKDHKFWRTQPVKDFDEKVVEEGPIDKPKTPEDISDKPLPLLSSFEWCSIDVDNKKQLEDVFVLLNENYVEARAAGFRFNYTKEFFNWALKSPGWKKDWHIGVRVKETQKLVAFISAIPVTLGVRGKQVPSVEINFLCVHKQLRSKRLTPVLIKEITRRVNKCDIWHALYTAGIVLPAPVSTCRYTHRPLNWKKLYEVDFTGLPDGHTEEDMIAENALPAKTKTAGLRKLKKEDIDQVFELFKRYQSRFELIQIFTKEEFEHNFIGEESLPLDKQVIFSYVVEQPDGKITDFFSFYSLPFTILNNTKYKDLGIGYLYYYATDADFQFKDRFDPKATKALKTRLCELIYDACILAKNANMDVFNALTSQDNTLFLDDLKFGPGDGFLNFYLFNYRAKPITGGLNPDNSNDIKRRSNVGVVML
Km [9]: 38.5 µM
kcat [9]: 2.55 s⁻¹
kcat/Km [10]: 6.62 ×10⁴ /M/s

B2: Glycylpeptide N-tetradecanoyltransferase (Saccharomyces cerevisiae S288c), P14743 D22A,D23A (protein)
chain: B1 chain with D22A, D23A, A106D, A108D
Km [11]: 92.4 µM
kcat [11]: 3.83 s⁻¹
kcat/Km [12]: 4.15 ×10⁴ /M/s
